Assay results published in patent US7700644B2, “Isoflavonoid dimers” (Novogen Research Pty Ltd, priority 2005, dated 2010).

Tests used:
[1] = system: breast cancer cell line MDA-MB-468; assay: In vitro cytotoxicity, MTT proliferation assay, MDA-MB-468; assay type: cell-based, human; settings: Homo sapiens; Breast MDA-MB-468
Description: (§1) The human pancreatic cancer cell line, HPAC (CRL-2119) was routinely cultured in 1:1 mixture DMEM (Sigma) plus Ham's F12 (Sigma) medium containing HEPES (15 mM), insulin (0.002 mg/ml), transferrin (0.005 mg/ml), hydrocortisone, (40 ng/ml), epidermal growth factor (10 ng/ml). The ovarian cancer cell line CP70 was obtained as a gift from Dr. Gil Mor (Yale University) and cultured in a 1:1 mixture DMEM plus Ham's F12 medium, and SKOV-3 was purchased from ATCC and cultured in McCoy's 5a medium. The breast cancer cell line MDA-MB-468 cultured in Leibovitz's L-15 medium.
(§2) All cultures were supplemented with 10% FCS(CSL, Australia), penicillin (100 U/ml), streptomycin ([…]), L-glutamine (2 mM) and sodium bicarbonate (1.2 g/L), and cultured at 37° C. in a humidified atmosphere of 5% CO2. All remaining cell lines were purchased from ATCC (Maryland, USA) except where noted.
(§3) IC50 values were determined for each cell line. Cells were seeded in 96-well plates at an appropriate cell density as determined from growth kinetics analysis. NFFs were cultured for 5 days and RK-13s for 24 hrs in the absence and presence of the test compounds. Cell proliferation was assessed after the addition of 20 μl of 3-4,5 dimethylthiazol-2,5-diphenyl tetrazolium bromide (MTT, 2.5 mg/ml in PBS, Sigma) for 3-4 hrs at 37° C. according to manufacturer's instructions. IC50 values were calculated from semi-log plots of % of control proliferation on the y-axis against log dose on the x-axis.

[2] = system: ovarian cancer cell line CP70; assay: In vitro cytotoxicity, MTT proliferation assay, CP70; assay type: cell-based, human; settings: Homo sapiens
Description: as §1, §2, §3

[3] = system: MM96L (Melanoma); assay: In vitro cytotoxicity, MTT proliferation assay, MM96L; assay type: cell-based, human; settings: Homo sapiens
Description: as §1, §2, §3

[4] = system: CCRF-CEM (Leukemic); assay: In vitro cytotoxicity, MTT proliferation assay, CCRF-CEM; assay type: cell-based; settings: Homo sapiens
Description: as §1, §2
(§4) IC50 values were determined for each cell line. Cells were seeded in 96-well plates at an appropriate cell density as determined from growth kinetics analysis. […] Cell proliferation was assessed after the addition of 20 μl of 3-4,5 dimethylthiazol-2,5-diphenyl tetrazolium bromide (MTT, 2.5 mg/ml in PBS, Sigma) for 3-4 hrs at 37° C. according to manufacturer's instructions. IC50 values were calculated from semi-log plots of % of control proliferation on the y-axis against log dose on the x-axis.

[5] = system: RPMI-8226 (Leukemic); assay: In vitro cytotoxicity, MTT proliferation assay, RPMI-8226; assay type: cell-based; settings: Homo sapiens; Leukemic RPMI-8226
Description: as §1, §2, §4

[6] = system: SKOV-3 (Ovarian); assay: In vitro cytotoxicity, MTT proliferation assay, SKOV-3; assay type: cell-based, human; settings: Homo sapiens, SK-OV-3; Ovarian SKOV-3
Description: as §1, §2, §3

[7] = system: DU145 (Prostate); assay: In vitro cytotoxicity, MTT proliferation assay, DU145; assay type: cell-based, human; settings: Homo sapiens, DU-145
Description: as §1, §2, §3

[8] = system: A2780 (Ovarian); assay: In vitro cytotoxicity, MTT proliferation assay, A2780; assay type: cell-based, human; settings: Homo sapiens
Description: as §1, §2, §3

[9] = system: PC3 (Prostate); assay: In vitro cytotoxicity, MTT proliferation assay, PC3; assay type: cell-based, human; settings: Homo sapiens
Description: as §1, §2, §3

[10] = Oral pharmacokinetics in mice; assay type: in vivo, female BALB/c mice; settings: female, BALB/c, mouse, blood, 50 mg/kg, oral gavage, read-out: Free concentration in blood
Description: 4,9-Dihydroxy-14,15-dimethoxy-12a-(3′,4′-dimethoxyphenyl)-3,10-dimethyl-2,11-dioxa-(1H,12H)-6b,6c,12a,16b-tetrahydronaphtho[1,2-g]chrysene (2) from Example 6.1 was prepared as homogenous suspensions in 1% CMC (m:v, water). The Cpd. 2 formulation was delivered orally by gavage to female BALB/c mice at a dosage of 50 mg/kg. Three animals were allocated to each time point (15 min, 30 min, 1 hr, 4 hr and 24 hr). At each respective time point, animals were euthanased by cervical dislocation and blood collected. Free Cpd.

[11] = system: LNCaP (Prostate); assay: In vitro cytotoxicity, MTT proliferation assay, LNCaP; assay type: cell-based, human; settings: Homo sapiens
Description: as §1, §2, §3

[12] = system: MCF-7 (Breast); assay: In vitro cytotoxicity, MTT proliferation assay, MCF-7; assay type: cell-based, human; settings: Homo sapiens, MCF7; Breast MCF-7
Description: as §1, §2, §3

[13] = system: human pancreatic cancer cell line, HPAC (CRL-2119); assay: In vitro cytotoxicity, MTT proliferation assay, CRL-2119; assay type: cell-based; settings: Homo sapiens, HPAC; Pancreatic CRL-2119
Description: as §1, §2, §3

[14] = system: NCI-H460 (Lung); assay: In vitro cytotoxicity, MTT proliferation assay, NCI-H460; assay type: cell-based, human; settings: Homo sapiens
Description: as §1, §2, §3

[15] = system: Neonatal foreskin fibroblasts (NFF); assay: Normal cell toxicity, MTT proliferation assay, NFF; assay type: cell-based, human; settings: Homo sapiens, 120 h; NFF fibroblast, cultured 5 days, MTT
Description: (§5) Neonatal foreskin fibroblasts (NFF) were a gift from Dr. Peter Parsons (Queensland Institute of Medical Research). RK-13 (rabbit kidney) cells were obtained from Miller Whalley (Macquarie University). Both cell types were cultured in RPMI supplemented with 10% FCS (CSL, Australia), penicillin (100 U/ml), streptomycin ([…]), L-glutamine (2 mM) and sodium bicarbonate (1.2 g/L), and cultured at 37° C. in a humidified atmosphere of 5% CO2.
as §3
Duplicate cytotoxicity assays against NFF cells were conducted with dehydroequol (DHE), 4,9-dihydroxy-14,15-dimethoxy-12a-(3′,4′-dimethoxyphenyl)-3,10-dimethyl-2,11-dioxa-(1H,12H)-6b,6c,12a,16b-tetrahydronaphtho[1,2-g]chrysene (2) from Example 6.1 and cisplatin.

[16] = system: NCI-H23 (Lung); assay: In vitro cytotoxicity, MTT proliferation assay, NCI-H23; assay type: cell-based; settings: Homo sapiens
Description: as §1, §2, §4

[17] = system: RK-13 (rabbit kidney) cells; assay: Normal cell toxicity, MTT proliferation assay, rabbit kidney cells; assay type: cell-based; settings: Oryctolagus cuniculus, 24 hrs
Description: as §5, §3

[18] = system: HCT-15 (Colorectal); assay: In vitro cytotoxicity, MTT proliferation assay, HCT-15; assay type: cell-based, human; settings: Homo sapiens; Colorectal HCT-15
Description: as §1, §2, §3

[19] = system: HTB-138 (Glioma); assay: In vitro cytotoxicity, MTT proliferation assay, HTB-138; assay type: cell-based, human; settings: Homo sapiens; Glioma HTB-138
Description: as §1, §2, §3

[20] = system: MM200 (Melanoma); assay: In vitro cytotoxicity, MTT proliferation assay, MM200; assay type: cell-based, human; settings: Homo sapiens
Description: as §1, §2, §3

[21] = system: HT-29 (Colorectal); assay: In vitro cytotoxicity, MTT proliferation assay, HT-29; assay type: cell-based, human; settings: Homo sapiens; Colorectal HT-29
Description: as §1, §2, §3

## Oc1ccc(C2=Cc3ccc(O)cc3OC2)cc1 [DHE, 3-(4-hydroxyphenyl)chrom-3-en-7-ol]
[1]
  IC50: 7.9 ± 3.5 µM
[2]
  IC50: 1.69 ± 0.62 µM
[3]
  IC50: 4.7 µM
[4]
  IC50: 1.7 ± 0.68 µM
[5]
  IC50: 3.72 ± 0.08 µM
[6]
  IC50: 21.8 ± 4.65 µM
[7]
  IC50: 5.95 ± 1.5 µM
[8]
  IC50: 1.7 ± 0.61 µM
[9]
  IC50: 9.09 ± 8.12 µM
[10]; Time 0.25 (15 min)
  concentration at 15 min: 3300 nM
[10]; Time 0.5 (30 min)
  concentration at 30 min: 2900 nM
[10]; Time 1 (1 hr)
  concentration at 1 h: 1500 nM
[10]; Time 4 (4 hr)
  concentration at 4 h: 1300 nM
[10]; Time 24 (24 hr)
  concentration at 24 h: 150 nM
[11]
  IC50: 4.8 ± 3.8 µM
[12]
  IC50: 21.5 ± 13.2 µM
[13]
  IC50: 56.6 ± 16.8 µM
[14]
  IC50: 10.6 ± 3.8 µM
[15]
  IC50: > 150 µM
[16]
  IC50: 8.75 ± 7.2 µM
[17]
  IC50: > 150 µM
[18]
  IC50: 24.4 ± 12.6 µM
[19]
  IC50: 7.35 ± 0.89 µM
[20]
  IC50: 4.8 µM
[21]
  IC50: 50.5 ± 21.9 µM
